Consider 13 compounds from ChEMBL document CHEMBL3108690, “Discovery and characterization of a novel dihydroisoxazole class of α-amino-3-hydroxy-5-methyl-4-isoxazolepropionic acid (AMPA) receptor potentiators” (J Med Chem, 2013).

As usually defined, the pEC50 is the EC50 on a negative log10 scale, so that one unit is a factor of ten. What is called Emax is the greatest response seen or fitted, relative to the assay's reference. What is called efflux ratio is the permeability from basolateral to apical divided by that in the opposite direction, in the common usage. In general, Papp A→B refers to the apparent permeability from the apical to the basolateral side of a cell layer. As usually defined, the Papp is a coefficient for how fast a substance crosses the barrier. For orientation: fraction unbound means the share of the substance not bound to proteins or other matrix. The low end stands for little free substance, the high end for much free substance. By pKi is commonly meant −log10 of the Ki, conventionally taken in molar units. High values mean a low Ki, low ones a high Ki.

pEC50, pKi: −log10 of the molar value. Calls of active or inactive are those of the source. The calls are words filed in the database; no cut-off is given here.

Data set [1] in a line: Positive allosteric modulation of AMPAR in mouse embryonic stem cell-derived neurons assessed as intracellular Ca2+ flux by FLIPR assay. Format: cell-based.
For data set [2], the species on record is Mus musculus. The data set is described as follows: Positive allosteric modulation of AMPAR in mouse embryonic stem cell-derived neurons assessed as intracellular Ca2+ flux by FLIPR assay in presence of cyclothiazide relative to AMPA. Format: cell-based. In general terms: Calcium flux is commonly read through the fluorescence of an indicator in the cells.

The next data set relates to human MDR1. Briefly: Efflux ratio of apparent permeability from basolateral to apical side over apical to basolateral side in MDCK cells transfected with human MDR1 at 2 uM. The class given is ADME, cell-based, Canis lupus familiaris. The conditions noted are these: dog.
The nature of data set [3]: Apparent permeability from apical to basolateral side in MDCK cells at 2 uM by LC-MS/MS analysis. Format: ADME, cell-based, Canis lupus familiaris. To be noted: dog.
Another data set concerns MDR1. Briefly: Efflux ratio of apparent permeability in MDCK cells expressing MDR1. Format: ADME, cell-based, Canis lupus familiaris. To be noted: dog.
The nature of data set [4]: Apparent permeability in MDCK cells. The class given is ADME, cell-based, Canis lupus familiaris. To be noted: dog.
The nature of data set [5]: Apparent intrinsic clearance in human liver microsomes. Format: ADME. To be noted: read-out: CLH(app).
Data set [6] can be described thus: Fraction unbound in Sprague-Dawley rat plasma at 0.01 mg/kg, iv. The class given is ADME, organism-based. Further details: dose 0.01 mg/kg, route intravenous.
Data set [7] deals with Rattus norvegicus. The data set is described as follows: Reversal of MK-801-mediated decrease in paired-pulse facilitation in Sprague-Dawley rat at 0.003 mg/kg, iv administered as bolus dose measured after 5 mins. The class given is functional, organism-based. Further details: dose 0.003 mg/kg.
Data set [8] can be described thus: Displacement of [3H]PF-04725379 from Sprague-Dawley rat AMPAR after 2 hrs by liquid scintillation counting analysis.
The subject of data set [9] is Rattus norvegicus. The data set is described as follows: Reversal of MK-801-mediated decrease in paired-pulse facilitation in Sprague-Dawley rat at 0.001 mg/kg, iv administered as bolus dose measured after 5 mins. Further details: dose 0.001 mg/kg. The class given is functional, organism-based.
Data set [10] can be described thus: Therapeutic index, ratio of unbound concentration in brain required to cause convulsion in Sprague-Dawley rat at 0.32 to 0.56 mg/kg, sc to unbound concentration in brain required to cause reversal of MK-801-mediated increase in low delta component of local field potential in Sprague-Dawley rat at 0.003 mg/kg, iv administered as bolus dose. The class given is organism-based. The conditions noted are these: read-out: TI.

For data set [11], the system named is Mus musculus. The data set is described as follows: Toxicity in CD-1 mouse assessed as induction of convulsion at 0.32 to 0.56 mg/kg, sc measured after 5 to 11 mins. The class given is organism-based. Further details: route subcutaneous. The conditions noted are these: in vivo.
In data set [12] the test system is Rattus norvegicus. The data set is described as follows: Reversal of MK-801-mediated increase in low delta component of local field potential in Sprague-Dawley rat at 0.001 mg/kg, iv administered as bolus dose measured after 5 mins. Also on record: dose 0.001 mg/kg. Format: functional, organism-based.
The nature of data set [13]: Terminal half life in Sprague-Dawley rat plasma at 0.2 mg/kg, sc qd. Format: ADME, organism-based. Further details: dose 0.2 mg/kg, route subcutaneous. The conditions noted are these: read-out: beta t1/2 (converted).
The subject of data set [14] is Rattus norvegicus. Briefly: Toxicity in Sprague-Dawley rat assessed as induction of convulsion at 0.32 to 0.56 mg/kg, sc measured after 13 to 23 mins. The class given is organism-based. Also on record: route subcutaneous. The conditions noted are these: in vivo.
Data set [15] can be described thus: Ratio of unbound concentration in brain required to cause induction of cGMP level in CD-1 mouse cerebellum at 0.32 mg/kg, sc over unbound concentration in brain required to cause reversal of MK-801-mediated increase in low delta component of local field potential in Sprague-Dawley rat at 0.003 mg/kg, iv administered as bolus dose. The class given is functional.

In data set [16] the test system is Rattus norvegicus. Briefly: Toxicity in Sprague-Dawley rat assessed as induction of tremor at 0.32 to 0.56 mg/kg, sc measured at 10 mins. Further details: dose 0.32-0.56 mg/kg, route subcutaneous. Format: organism-based. The conditions noted are these: in vivo.
Data set [17] can be described thus: Ratio of total drug level from brain to plasma in Sprague-Dawley rat at 0.2 mg/kg, sc qd. The class given is ADME, organism-based. Also on record: dose 0.2 mg/kg, route subcutaneous. To be noted: read-out: BPR.
The subject of data set [18] is Mus musculus. The data set is described as follows: Induction of cGMP level in sc dosed CD-1 mouse cerebellum administered as qd measured after 0.5 hrs by EIA. Format: functional, organism-based.
The subject of data set [19] is Mus musculus. The data set is described as follows: Ratio of unbound concentration in brain required to cause convulsion in CD-1 mouse at 0.32 to 0.56 mg/kg, sc to unbound concentration in brain required to cause induction of cGMP level in CD-1 mouse cerebellum at 0.32 mg/kg, sc.
Data set [20] can be described thus: Fraction unbound in Sprague-Dawley rat brain at 0.01 mg/kg, iv. The class given is ADME, organism-based. Also on record: dose 0.01 mg/kg, route intravenous.
The test system of data set [21] is Rattus norvegicus. The data set is described as follows: Reversal of MK-801-mediated increase in low delta component of local field potential in Sprague-Dawley rat at 0.003 mg/kg, iv administered as bolus dose measured after 5 mins. Also on record: dose 0.003 mg/kg. Format: functional, organism-based.
Data set [22] can be described thus: Terminal half life in Sprague-Dawley rat brain at 0.2 mg/kg, sc qd. Further details: dose 0.2 mg/kg, route subcutaneous. The class given is ADME, organism-based. The conditions noted are these: read-out: beta t1/2 (converted).
Data set [23] in a line: Ratio of free drug level from brain to plasma in Sprague-Dawley rat at 0.2 mg/kg, sc qd. Format: ADME, organism-based. Also on record: dose 0.2 mg/kg, route subcutaneous. The conditions noted are these: read-out: K(p,uu,brain).
Data set [24] can be described thus: Ratio of drug level from brain to plasma in CD-1 mouse at 0.1 mg/kg, sc qd measured after 0.5 hrs. Further details: dose 0.1 mg/kg, route subcutaneous. The conditions noted are these: read-out: BPR. Format: ADME, organism-based.

With `CC(C)S(=O)(=O)NCC1CC(c2ccc(N3CCCC3)c(F)c2)=NO1` (racemic), the pEC50 in [1] was 6.81. Further, in the data set filed under Mus musculus [2], the Emax turned out to be 128%.
As to `CC(C)S(=O)(=O)NCC1CC(c2ccc(-c3ccccc3)c(F)c2)=NO1` (racemic), the pEC50 in data set [1] was 5.49. Further, the Emax in the data set filed under Mus musculus [2] was 138%.
As to `CC(C)S(=O)(=O)NCC1CC(c2ccc(-c3cccnc3)c(F)c2)=NO1` (racemic), the pEC50 in data set [1] was 6.53. For the same compound, the efflux ratio at 2 µM with human MDR1 was 0.84. The Papp A→B at 2 µM in data set [3] amounted to 22 ×10⁻⁶ cm/s. For the same compound, in the data set listed under Mus musculus [2], the maximum response (Emax) was 157%.
On to `CC(=O)NC[C@@H]1CC(c2ccc(N3CCCC3)c(F)c2)=NO1`, for which, in [1], the pEC50 is 5.36. Besides, the efflux ratio in the data set with MDR1 is 0.98. Also, in [4], the Papp is 35 ×10⁻⁶ cm/s. Further, in data set [5], the microsomal CLint amounted to 26 µL/min/mg.
As for `CC(C)S(=O)(=O)NC[C@@H]1CC(c2ccc(N3CCCC3)c(F)c2)=NO1`, the fraction unbound in [6] was determined as 0.027; in data set [20], 0.014. The result in the data set with Rattus norvegicus [7] and in the data set with Rattus norvegicus [21] was Active. The pKi in [8] is over 7.62. In addition, the result in the data set on Rattus norvegicus [9] and in the data set with Rattus norvegicus [12] was inactive. The negative logarithm of the EC50 (pEC50) in data set [1] was 6.91. Moreover, the selectivity ratio in [10] is 500. Besides, the Activity entry was “Toxic” in the data set on Mus musculus [11], “Toxic” with Rattus norvegicus [14], “Toxic” with Rattus norvegicus [16] and “Dose-dependent effect” in the data set with Mus musculus [18]. In the data set with human MDR1, the efflux ratio at 2 µM amounted to 1.45. In addition, the half-life in data set [13] and in data set [22] was 24 min throughout. Besides, the Ratio in [15] worked out at 100; in the data set on Mus musculus [19] it was 5. Further, the apical-to-basolateral permeability (Papp A→B) at 2 µM in data set [3] stood at 18.6 ×10⁻⁶ cm/s. Besides, the Emax in the data set listed under Mus musculus [2] is 147%. In addition, in data set [17], the Kp amounted to 1.04. In data set [23], the Kp uu was 0.54.
`CC(C)S(=O)(=O)NCC1CC(c2cccc(F)c2)=NO1` (racemic): the pEC50 in [1] is under 4.50.
Compound `CC(C)S(=O)(=O)NC[C@H]1CC(c2ccc(N3CCCC3)c(F)c2)=NO1` had a pKi in data set [8] of 5.24. Further, the pEC50 in data set [1] is 5.33. For the same compound, the efflux ratio at 2 µM in the data set with human MDR1 worked out at 1.6. For the same compound, the Emax in the data set filed under Mus musculus [2] was 114%.
As for `CC(C)S(=O)(=O)NC[C@@H]1CC(c2ccc(-c3ccccc3C#N)c(F)c2)=NO1`, the pKi in data set [8] is 7.62. Also, in [1], the negative-log EC50 (pEC50) was over 8.00. Besides, the efflux ratio at 2 µM with human MDR1 turned out to be 1.18. In addition, in [3], the Papp A→B at 2 µM stood at 29.1 ×10⁻⁶ cm/s.
Regarding `CC(=O)N[C@H]1CCN(c2ccc(C3=NO[C@H](CNS(=O)(=O)C(C)C)C3)cc2F)C1`, the pEC50 in data set [1] was over 8.00. In addition, in data set [24], the Kp at 0.5 h was determined as 0.03. The efflux ratio at 2 µM with human MDR1 stood at 12.1. Further, in [3], the Papp A→B at 2 µM stood at 3.93 ×10⁻⁶ cm/s. Further, the Emax in the data set listed under Mus musculus [2] was determined as 143%.
In the case of `CC(C)S(=O)(=O)NCC1CC(c2ccc(-c3ccccc3C#N)c(F)c2)=NO1` (racemic), in [1], the pEC50 is 7.06. The efflux ratio at 2 µM in the data set on human MDR1 is 1.16. Further, the Papp A→B at 2 µM in [3] was 12.9 ×10⁻⁶ cm/s. Besides, the Emax in the data set filed under Mus musculus [2] is 152%.
On the same counts, the results for `CC(C)S(=O)(=O)NCC1CC(c2ccc(-c3ccc(C#N)cc3)c(F)c2)=NO1` (racemic) are 5.58, 1.4, 16.7 ×10⁻⁶ cm/s and 124%.
The corresponding values for `CC(C)S(=O)(=O)NCC1CC(c2ccc(-c3cccc(C#N)c3)c(F)c2)=NO1` (racemic) are 5.73, 1.17, 15.1 ×10⁻⁶ cm/s and 156%.
Regarding `CC(C)S(=O)(=O)NCC1CC(c2ccc(N3CCCC3)cc2)=NO1` (racemic), the pEC50 in data set [1] is 6.60. Moreover, the efflux ratio at 2 µM in the data set on human MDR1 amounted to 0.89. The Emax in the data set listed under Mus musculus [2] turned out to be 169%.
